Assay results reported in ChEMBL document CHEMBL6134798, “Classifying covalent protein binders by their targeted binding site” (Bioorg Med Chem Lett, 2025).
Values belong to the molecule of their own block, whether it stands above or below them.

Legend:
[1] = target: Epidermal growth factor receptor (Homo sapiens, UniProt P00533); test: Inhibition of EGFR (unknown origin)
K562 = test: Growth inhibition of human K562 cells; format: functional
Secernin-3 = target: T1, Secernin-3 (Homo sapiens, UniProt Q0VDG4); test: Inhibition of full length human SCRN3 transfected in HEK293T cells; format: cell-based
T1 sequence (Q0VDG4 whole entry): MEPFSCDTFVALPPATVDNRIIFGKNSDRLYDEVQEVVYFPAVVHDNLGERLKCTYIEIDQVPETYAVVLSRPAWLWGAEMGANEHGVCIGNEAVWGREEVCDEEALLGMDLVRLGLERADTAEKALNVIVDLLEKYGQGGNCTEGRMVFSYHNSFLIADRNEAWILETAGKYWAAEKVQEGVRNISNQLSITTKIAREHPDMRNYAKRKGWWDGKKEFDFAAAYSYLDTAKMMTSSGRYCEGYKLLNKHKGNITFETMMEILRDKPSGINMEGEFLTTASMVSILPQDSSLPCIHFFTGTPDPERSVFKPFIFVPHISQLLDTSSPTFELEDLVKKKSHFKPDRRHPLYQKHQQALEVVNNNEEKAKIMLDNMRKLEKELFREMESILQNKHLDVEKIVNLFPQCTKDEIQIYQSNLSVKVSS

Chain of Epidermal growth factor receptor (P00533 whole entry): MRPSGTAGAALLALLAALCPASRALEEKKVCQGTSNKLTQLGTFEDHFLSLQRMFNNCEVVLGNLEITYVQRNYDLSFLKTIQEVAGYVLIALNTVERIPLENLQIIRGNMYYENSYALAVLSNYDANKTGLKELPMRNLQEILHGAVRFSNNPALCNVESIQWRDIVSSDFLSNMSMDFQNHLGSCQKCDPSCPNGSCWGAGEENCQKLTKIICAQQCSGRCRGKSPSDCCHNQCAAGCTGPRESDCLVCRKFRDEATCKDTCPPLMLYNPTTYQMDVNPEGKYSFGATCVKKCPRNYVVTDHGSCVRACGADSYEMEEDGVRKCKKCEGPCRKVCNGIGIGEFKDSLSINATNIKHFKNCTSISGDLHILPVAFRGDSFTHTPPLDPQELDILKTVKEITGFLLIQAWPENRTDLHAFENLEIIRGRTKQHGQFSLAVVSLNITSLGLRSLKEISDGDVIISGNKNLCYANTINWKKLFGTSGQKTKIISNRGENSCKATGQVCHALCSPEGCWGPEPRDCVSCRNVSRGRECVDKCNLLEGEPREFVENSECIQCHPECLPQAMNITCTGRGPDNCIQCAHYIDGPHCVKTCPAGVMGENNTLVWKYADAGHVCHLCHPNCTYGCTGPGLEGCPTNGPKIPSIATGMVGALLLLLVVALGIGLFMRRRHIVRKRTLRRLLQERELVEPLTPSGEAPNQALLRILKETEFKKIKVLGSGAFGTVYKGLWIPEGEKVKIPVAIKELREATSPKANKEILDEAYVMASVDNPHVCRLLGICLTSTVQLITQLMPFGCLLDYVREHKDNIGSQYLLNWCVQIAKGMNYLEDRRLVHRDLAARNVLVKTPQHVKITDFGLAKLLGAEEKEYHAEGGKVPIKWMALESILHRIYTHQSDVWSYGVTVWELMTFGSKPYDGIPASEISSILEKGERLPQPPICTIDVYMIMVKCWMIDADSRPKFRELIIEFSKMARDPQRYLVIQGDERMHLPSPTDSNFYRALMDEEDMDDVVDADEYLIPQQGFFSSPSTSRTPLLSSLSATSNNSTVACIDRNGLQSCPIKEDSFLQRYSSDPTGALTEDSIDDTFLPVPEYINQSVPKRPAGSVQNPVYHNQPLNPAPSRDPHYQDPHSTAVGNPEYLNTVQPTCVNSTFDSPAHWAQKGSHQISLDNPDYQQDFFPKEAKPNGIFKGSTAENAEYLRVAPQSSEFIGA

IC50 [1]: 120 nM
SMILES: C=CC(=O)N1CCN(c2ncnc3c(F)c(-c4c(O)cccc4F)c(Cl)cc23)CC1

GI50 (K562): 55.6 nM
SMILES: COc1cc(O)c(C=O)cc1-c1c[nH]c2ncc(-c3cncc(C(=O)N(C)C)c3)cc12

SMILES: NNc1ccc2ccccc2c1
IC50 (Secernin-3): 200 nM
